US5712417A, “Inhibitors of retroviral proteases” (Abbott Laboratories, priority 1989, dated 1998)
Structures can show the parent of a compound that is named as a salt. Where two headings read alike, the source gives them in different places.

Target: T1, HIV protease (Human immunodeficiency virus type 1 group M subtype B, UniProt P04585)
T1 construct: HIV protease consists of 99 amino acids and is evidently split off by itself from the pol polyprotein
Assay: Inhibition of HIV protease (cleavage of H-Ser-Phe-Asn-Phe-Opr-Gln-Ile-OH, HPLC)
Format: biochemical
Excerpt: The compounds of the formula (I) according to the invention have enzyme-inhibiting properties. In particular, they inhibit the action of retroviral aspartyl proteases, such as that of HIV protease. Their enzyme-inhibitory action, which is in the milli- to subnanomolar range, can be determined as follows.
The heptapeptide: H-Ser-Phe-Asn-Phe-Pro-Gln-Ile-OH (P. L. Darke et al., Biophys. Res. Commun. 156 (1988) 297-303), inter alia, has hitherto been used as the substrate of HIV protease. HIV protease cleaves the substrate here between the second Phe and Pro.
General instructions for testing inhibitors of HIV proteases: a) Preparation of the substrate solution:
2 mg of H-Ser-Phe-Asn-Phe-Opr-Gln-Ile-OH (H-Opr-OH=5-oxaproline) are dissolved in 1 ml of MGTE15 buffer (use of ultrasound if necessary) and the solution is then filtered over a sterile filter (0.45 μm). […]
b) Preparation of the inhibitor solution:
2.5 times the desired molarity of the inhibitor per ml of solution are weighed out and dissolved in DMSO (10% of the final volume). The solution is diluted to the final volume with MGTE15 buffer and filtered over a sterile filter (0.45 μm). […]
c) Preparation of the protease solution:
5 μl of the HIV protease solution are diluted with MGTE25 buffer as required.
10 μl portions of the substrate solution are pipetted into test-tubes (16×100) with a screw cap. For the blank experiment, 10 μl of MGTE15 buffer containing 10% of DMSO are pipetted into a test-tube. 10 μl portions of the inhibitor solutions are added to the other test-tubes. The mixtures are incubated at 37° C. for 5-10 minutes and 5 μl of the protease solution are then added to each sample, After reaction at 35° C. for 2 hours, 10 or 20 μl (depending on the sensitivity of the HPLC apparatus) of each sample are then pipetted off, introduced into microvials and diluted with 120 μl of the HPLC mobile phase. […]
e) Conditions for the HPLC analysis:
20% (weight/weight) of aceto-
Column: Merck ®LICHROSORB RP18 (5 μm) 250×4
Column temperature: 42° C.
Detector parameters: 215 nm, 0.08 AUF, 18.2° C.
Analysis time: 11 minutes
Retention time of the substrate: 8.1 minutes
Retention time of the N-terminal tetrapeptide: 3.9 minutes
20 mM morpholinoethanesulfonic acid (MES)
15% (weight/volume) of glycerol
0.1% (volume/volume) of Triton ×100
1 mM phenylmethylsulfonyl fluoride (PMSF)
25% (weight/volume) of glycerol, additionally 1 mM dithiothreitol (DTT) The MES, EDTA, NaCl, DTT and PMSF are weighed into a conical flask and dissolved in a little water and the pH is brought to 6. The corresponding amount of glycerol is weighed into a measuring flask and ®Triton ×100 is pipetted in. The aqueous solution is transferred to the measuring flask and made up to the mark with water.
A 0.1M solution is prepared from orthophosphoric acid (FLUKA extra pure analytical grade). This solution is brought to exactly pH 2.5 with triethylamine (FLUKA extra pure analytical grade). The weight of the solution is determined and the corresponding amount of acetonitrile (fume cupboard) is weighed in. The mixture is mixed thoroughly and degassed with helium 5.0 for about 5 minutes.
Under the conditions chosen here, heptapeptides are separated from the N-terminal tetrapeptide formed during enzymatic cleavage. The percentage content of the tetrapeptide peak in respect of the sum of tetrapeptide+heptapeptide corresponds to the cleaving rate. The following IC50 values indicate the inhibitor concentration at which the cleavage rate is halved.

[1] = inhibitor concentration at which the cleavage rate is halved, pH 6, 2 hours, read-out: IC50

Row | SMILES | IC50 [1] | other results
1 | CC(C)[C@H](NC(=O)[C@H](Cc1ccccc1)NC(=O)OC(C)(C)C)C(=O)N[C@H](Cc1ccccc1)[C@@H](O)[C@H](O)[C@@H](Cc1ccccc1)NC(=O)[C@@H](NC(=O)[C@H](Cc1ccccc1)NC(=O)OC(C)(C)C)C(C)C [Example 33, N,N'-bis-(tert.-Butoxycarbonyl-L-phenylalanyl-L-valyl)-2R,5R-diamino-1,6-diphenylhexane-3R,4R-diol] | 20000 nM | –
2 | CC(C)[C@H](NC(=O)[C@H](Cc1cccc2ccccc12)NC(=O)OC(C)(C)C)C(=O)N[C@@H](Cc1ccccc1)[C@@H](O)[C@H](O)[C@H](Cc1ccccc1)NC(=O)[C@@H](NC(=O)[C@H](Cc1cccc2ccccc12)NC(=O)OC(C)(C)C)C(C)C [Example 40, N,N'-bis-(tert.-Butoxycarbonyl-L-(1-naphthyl)-alanyl-L-valyl)-2S,5S-diamino-1,6-diphenylhexane-3R,4R-diol] | 13 nM | –
3 | CC(C)[C@H](NC(=O)[C@@H](N)Cc1ccccc1)C(=O)N[C@@H](CC1CCCCC1)[C@H](O)[C@@H](O)[C@H](CC1CCCCC1)NC(=O)[C@@H](NC(=O)[C@@H](N)Cc1ccccc1)C(C)C [Example 43, N,N'-bis-[L-Phenylalanyl-L-valyl]-2S,5S-diamino-1,6-dicyclohexylhexane-3S,4S-diol dihydrochloride] | 1 nM | –
4 | CC(C)[C@H](NC(=O)[C@H](Cc1ccccc1)NC(=O)OC(C)(C)C)C(=O)N[C@@H](CC1CCCCC1)[C@H](O)[C@@H](O)[C@H](CC1CCCCC1)NC(=O)[C@@H](NC(=O)[C@H](Cc1ccccc1)NC(=O)OC(C)(C)C)C(C)C [Example 45, N,N'-bis-(tert.-Butoxycarbonyl-L-phenylalanyl-L-valyl)-2S,5S-diamino-1,6-dicyclohexylhexane-3S,4S-diol] | 1500 nM | –
5 | CC(C)(C)OC(=O)N[C@@H](CC1CCCCC1)[C@H](O)[C@H](O)[C@H](CC1CCCCC1)NC(=O)OC(C)(C)C [Example 48, N,N'-bis-(tert.-Butoxycarbonyl)-2S, 5S-diamino-1,6-dicyclohexylhexane-3R, 4S-diol] | 80000 nM | –
6 | CC(C)[C@H](NC(=O)[C@H](Cc1ccccc1)NC(=O)[C@H]1CC[C@@H](N)CC1)C(=O)N[C@@H](Cc1ccccc1)[C@H](O)[C@@H](O)[C@H](Cc1ccccc1)NC(=O)[C@@H](NC(=O)[C@H](Cc1ccccc1)NC(=O)[C@H]1CC[C@@H](N)CC1)C(C)C [Example 49, N,N'-bis-(4Z-Aminocyclohexanecarbonyl-L-phenylalanyl-L-valyl)-2S, 5S-diamino-1,6-diphenyl-3S, 5S-diol dihydrochloride] | – | IC50 (pH 6, read-out: IC50): 1.2 nM
7 | CC(C)[C@H](NC(=O)[C@H](Cc1ccccc1)NC(=O)[C@H]1CC[C@@H](NC(=O)OC(C)(C)C)CC1)C(=O)N[C@@H](Cc1ccccc1)[C@H](O)[C@@H](O)[C@H](Cc1ccccc1)NC(=O)[C@@H](NC(=O)[C@H](Cc1ccccc1)NC(=O)[C@H]1CC[C@@H](NC(=O)OC(C)(C)C)CC1)C(C)C [Example 50, N,N'-bis-(4Z -N-tert.-Butoxycarbonylamino)-cyclohexanecarbonyl-L-phenylalanyl-L-valyl)-2S, 5S-diamino-1,6-diphenyl-4S, 5S-diol dihydrochloride] | – | IC50 (inhibitor concentration at which the cleavage rate is halved, pH 6, 2 hours): 45 nM
8 | CC(C)[C@H](NC(=O)[C@@H](Cc1cccs1)CS(=O)(=O)C(C)(C)C)C(=O)N[C@@H](Cc1ccccc1)[C@@H](O)[C@H](O)[C@H](Cc1ccccc1)NC(=O)[C@@H](NC(=O)[C@@H](Cc1cccs1)CS(=O)(=O)C(C)(C)C)C(C)C [Example 54, N,N,-bis-<(2R-(1,1-Dimethylethylsulfonylmethyl)-3-(2-thienyl)-propionyl)-L-valyl>-2S,5S-diamino-1,6-diphenyl-hexane-3R,4R-diol] | 260 nM | –
9 | CC(C)C[C@H](NC(=O)[C@@H](NC(=O)[C@@H](N)Cc1ccccc1)C(C)C)C(O)C(O)[C@H](CC(C)C)NC(=O)[C@@H](NC(=O)[C@@H](N)Cc1ccccc1)C(C)C (stereo partly drawn) [Example 55, N,N'-bis-(L-Phenylalanyl-L-valyl)-4S,7S-diamino-2,9-dimethyldecane-5,6-dioldihydrochloride] | 1.3 nM | –
10 | CC(C)[C@H](NC(=O)Cc1ccccn1)C(=O)N[C@@H](Cc1ccccc1)[C@@H](O)[C@H](O)[C@H](Cc1ccccc1)NC(=O)[C@@H](NC(=O)Cc1ccccn1)C(C)C [Example 58, N,N'-bis-<(2-Pyridyl)-acetyl-L-valyl>-2S,5S-diamino-1,6-diphenylhexane-3R,4R-diol] | 49 nM | –
11 | CC(C)[C@H](NC(=O)CSc1ccncc1)C(=O)N[C@@H](Cc1ccccc1)[C@@H](O)[C@H](O)[C@H](Cc1ccccc1)NC(=O)[C@@H](NC(=O)CSc1ccncc1)C(C)C [Example 59, N,N'-bis-<(4-Pyridylthio)-acetyl-L-valyl>-2S,5S-diamino-1,6-diphenylhexane-3R,4R-diol] | 47 nM | –
12 | CC(C)[C@H](NC(=O)[C@@H](Cc1ccccc1)NC(=O)OC(C)(C)C)C(=O)N[C@@H](Cc1ccccc1)[C@H](O)[C@@H](O)[C@H](Cc1ccccc1)NC(=O)[C@@H](NC(=O)[C@@H](Cc1ccccc1)NC(=O)OC(C)(C)C)C(C)C [Example 63, N,N'-bis-<tert.-Butoxycarbonyl-D-phenylalanyl-L-valyl>-2S,5S-diamino-1,6-diphenylhexane-3S,4S-diol] | 6.5 nM | –

Second part, led by results:

Row | IC50 [1] | SMILES | other results
13 | 3000 nM | CC(C)[C@H](NC[C@@H](N)Cc1ccccc1)C(=O)N[C@@H](Cc1ccccc1)[C@H](O)[C@@H](O)[C@H](Cc1ccccc1)NC(=O)[C@@H](NC[C@@H](N)Cc1ccccc1)C(C)C [Example 28, N,N'-bis-(2S-<2S-Amino-3-phenylpropyl>-amino-3-methyl-butanoyl)-2S,5S-diamino-1,6-diphenylhexane-3S,4S-diol tetrahydrochloride] | –
14 | 30 nM | CC(C)[C@H](NC(=O)[C@@H](N)Cc1ccccc1)C(=O)N[C@H](Cc1ccccc1)[C@@H](O)[C@H](O)[C@@H](Cc1ccccc1)NC(=O)[C@@H](NC(=O)[C@@H](N)Cc1ccccc1)C(C)C [Example 30, N,N'-bis-(L-Phenylalanyl-L-valyl)-2R,5R-diamino-1,6-diphenylhexane-3R,4R-diol dihydrochloride] | –
15 | 1.3 nM | CC(C)[C@H](NC(=O)[C@@H](N)Cc1cccc2ccccc12)C(=O)N[C@@H](Cc1ccccc1)[C@@H](O)[C@H](O)[C@H](Cc1ccccc1)NC(=O)[C@@H](NC(=O)[C@@H](N)Cc1cccc2ccccc12)C(C)C [Example 39, N,N'-bis-(L-(1-Naphthyl)-alanyl-L-valyl)-2S,5S-diamino-1,6-diphenylhexane-3R,4R-diol dihydrochloride] | –
16 | 0.8 nM | CC(C)[C@H](NC(=O)[C@H](Cc1cccc2ccccc12)CS(=O)(=O)C(C)(C)C)C(=O)N[C@@H](Cc1ccccc1)[C@H](O)[C@@H](O)[C@H](Cc1ccccc1)NC(=O)[C@@H](NC(=O)[C@H](Cc1cccc2ccccc12)CS(=O)(=O)C(C)(C)C)C(C)C [Example 51, N,N'-bis-<(2S-(1,1-Dimethylethylsulfonylmethyl)-3-(1-naphthyl)-propionyl)-L-valyl>-2S,5S-diamino-1,6-diphenyl-hexane-3S,4S-diol] | –
17 | 400 nM | CC(C)[C@H](NC(=O)[C@H](N)Cc1ccccc1)C(=O)N[C@@H](Cc1ccccc1)[C@H](O)[C@@H](O)[C@H](Cc1ccccc1)NC(=O)[C@@H](NC(=O)[C@H](N)Cc1ccccc1)C(C)C [Example 61, N,N'-bis-<D-Phenylalanyl-L-valyl>-2S,5S-diamino-1,6-diphenylhexane-3S,4S-diol dihydrochloride] | –
